Values joined by “and” are separate entries in the source; they are usually repeats but may differ in a detail not shown here. Equal entries are not always repeated. Toxic doses and inconclusive results are not listed. Peptide text beside a SMILES is read from it. * marks the point of attachment. Cbz = O=C(OCc1ccccc1)*
Test system: P388 leukemia ip, CD2F1 mice, survival T/C
Assay: NCI In Vivo Anticancer Drug Screen. Data for tumor model P388 Leukemia (intraperitoneal) in CD2F1 (CDF1) mice
Details: endpoint: median survival time, higher = longer survival
How it was run: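 Mice carrying the transplanted tumor received test compound or vehicle. Survival was recorded in each group, and the value is the treated-group measurement divided by that of the vehicle-treated control group.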

[1] = dose: 50.0 mg/kg/injection, schedule: Q01DX005 (ip), vehicle: Klucel (hydroxypropylcellulose) (HPC)
[2] = dose: 100.0 mg/kg/injection, schedule: Q01DX005 (ip), vehicle: Klucel (hydroxypropylcellulose) (HPC)
[3] = dose: 12.5 mg/kg/injection, schedule: Q01DX005 (ip), vehicle: saline with Tween-80
[4] = dose: 25.0 mg/kg/injection, schedule: Q01DX005 (ip), vehicle: saline with Tween-80
[5] = dose: 50.0 mg/kg/injection, schedule: Q01DX005 (ip), vehicle: saline with Tween-80

## CC(O)C(NC(=O)C(Cc1ccc(O)cc1)NC(=O)OCc1ccccc1)C(=O)O (stereo not drawn) (Cbz-Tyr-Thr-OH; configuration not given here)
dose: 50.0 mg/kg/injection, schedule: Q01DX005 (ip), vehicle: suspension in saline
  T/C: 105 % of control
dose: 100.0 mg/kg/injection, schedule: Q01DX005 (ip), vehicle: suspension in saline
  T/C: 96 % of control
dose: 200.0 mg/kg/injection, schedule: Q01DX005 (ip), vehicle: suspension in saline
  T/C: 111 % of control

## N#CSc1ccc2nc(NC(NC=O)C(Cl)(Cl)Cl)sc2c1 (stereo not drawn)
dose: 6.25 mg/kg/injection, schedule: Q01DX009 (ip), vehicle: Klucel (hydroxypropylcellulose) (HPC)
  T/C: 105 % of control
dose: 12.5 mg/kg/injection, schedule: Q01DX009 (ip), vehicle: Klucel (hydroxypropylcellulose) (HPC)
  T/C: 110 % of control
dose: 25.0 mg/kg/injection, schedule: Q01DX009 (ip), vehicle: Klucel (hydroxypropylcellulose) (HPC)
  T/C: 103 % of control

## COc1cc(NCc2ccc3nc(N)nc(N)c3c2C)cc(OC)c1OC (tested in a mixture with another compound)
dose: 2.6 mg/kg/injection, schedule: Q03HX024 (ip), vehicle: water
  T/C: 166 % of control
dose: 5.0 mg/kg/injection, schedule: Q03HX024 (ip), vehicle: water
  T/C: 182 % of control
dose: 5.2 mg/kg/injection, schedule: Q03HX024 (ip), vehicle: water
  T/C: 192 % of control
dose: 6.25 mg/kg/injection, schedule: Q03HX008 (sc), vehicle: water
  T/C: 114 % of control
dose: 6.9 mg/kg/injection, schedule: Q01DX009 (oral), vehicle: water
  T/C: 119 % of control
dose: 10.0 mg/kg/injection, schedule: Q03HX024 (ip), vehicle: water
  T/C: 201 % of control
dose: 10.4 mg/kg/injection, schedule: Q03HX024 (ip), vehicle: water
  T/C: 217 % of control
dose: 12.5 mg/kg/injection, schedule: Q03HX008 (sc), vehicle: water
  T/C: 118 % of control
dose: 13.8 mg/kg/injection, schedule: Q01DX009 (ip), vehicle: water
  T/C: 175 % of control
dose: 13.8 mg/kg/injection, schedule: Q01DX009 (oral), vehicle: water
  T/C: 156 % of control
dose: 20.0 mg/kg/injection, schedule: Q03HX024 (ip), vehicle: water
  T/C: 230 % of control
dose: 20.8 mg/kg/injection, schedule: Q03HX024 (ip), vehicle: water
  T/C: 233 % of control
dose: 25.0 mg/kg/injection, schedule: Q01DX005 (ip), vehicle: water
  T/C: 153 % of control and 154 % of control
dose: 25.0 mg/kg/injection, schedule: Q01DX005 (sc), vehicle: water
  T/C: 118 % of control
dose: 25.0 mg/kg/injection, schedule: Q03HX008 (sc), vehicle: water
  T/C: 123 % of control
dose: 27.7 mg/kg/injection, schedule: Q01DX009 (ip), vehicle: water
  T/C: 185 % of control
dose: 27.7 mg/kg/injection, schedule: Q01DX009 (oral), vehicle: water
  T/C: 163 % of control
dose: 40.0 mg/kg/injection, schedule: Q03HX024 (ip), vehicle: water
  T/C: 223 % of control
dose: 41.6 mg/kg/injection, schedule: Q03HX024 (ip), vehicle: water
  T/C: 103 % of control
dose: 50.0 mg/kg/injection, schedule: Q01DX005 (ip), vehicle: water
  T/C: 150 % of control and 160 % of control
dose: 50.0 mg/kg/injection, schedule: Q01DX005 (iv), vehicle: water
  T/C: 166 % of control
dose: 55.5 mg/kg/injection, schedule: Q01DX009 (ip), vehicle: water
  T/C: 208 % of control
dose: 55.5 mg/kg/injection, schedule: Q01DX009 (oral), vehicle: water
  T/C: 211 % of control
dose: 62.5 mg/kg/injection, schedule: Q01DX001 (ip), vehicle: water
  T/C: 109 % of control
dose: 62.5 mg/kg/injection, schedule: Q01DX001 (iv), vehicle: water
  T/C: 117 % of control
dose: 75.0 mg/kg/injection, schedule: Q03HX008 (sc), vehicle: water
  T/C: 163 % of control
dose: 100.0 mg/kg/injection, schedule: Q01DX005 (ip), vehicle: water
  T/C: 155 % of control and 173 % of control
dose: 100.0 mg/kg/injection, schedule: Q01DX005 (sc), vehicle: water
  T/C: 163 % of control
dose: 111.1 mg/kg/injection, schedule: Q01DX009 (oral), vehicle: water
  T/C: 98 % of control
dose: 125.0 mg/kg/injection, schedule: Q01DX001 (ip), vehicle: water
  T/C: 115 % of control
dose: 200.0 mg/kg/injection, schedule: Q01DX005 (sc), vehicle: water
  T/C: 95 % of control
dose: 50.0 micrograms per hour, schedule: Q#X X024 (sc), vehicle: water
  T/C: 120 % of control
dose: 50.0 micrograms per hour, schedule: Q#X X048 (sc), vehicle: water
  T/C: 123 % of control
dose: 50.0 micrograms per hour, schedule: Q#X X072 (sc), vehicle: water
  T/C: 163 % of control
dose: 70.0 micrograms per hour, schedule: Q#X X006 (iv), vehicle: water
  T/C: 112 % of control
dose: 85.0 micrograms per hour, schedule: Q#X X006 (iv), vehicle: water
  T/C: 121 % of control
dose: 100.0 micrograms per hour, schedule: Q#X X024 (sc), vehicle: water
  T/C: 118 % of control
dose: 100.0 micrograms per hour, schedule: Q#X X120 (sc), vehicle: water
  T/C: 112 % of control
dose: 200.0 micrograms per hour, schedule: Q#X X072 (sc), vehicle: water
  T/C: 181 % of control
dose: 200.0 micrograms per hour, schedule: Q#X X120 (sc), vehicle: water
  T/C: 94 % of control

## O=C(CP(=O)(O)O)OC1CCCCC1
dose: 100.0 mg/kg/injection, schedule: Q01DX001 (ip), vehicle: saline
  T/C: 101 % of control
dose: 200.0 mg/kg/injection, schedule: Q01DX001 (ip), vehicle: saline
  T/C: 101 % of control
dose: 400.0 mg/kg/injection, schedule: Q01DX001 (ip), vehicle: saline
  T/C: 100 % of control

## O/N=C1/CN(CCN2CC(NO)=N/C(=N\O)C2)CC(NO)=N1
[1]
  T/C: 90 % of control
[2]
  T/C: 89 % of control
dose: 200.0 mg/kg/injection, schedule: Q01DX005 (ip), vehicle: Klucel (hydroxypropylcellulose) (HPC)
  T/C: 89 % of control

## COc1ccc2c(c1)OC(C)(C)C(c1ccccc1)C2c1ccc(O)c([N+](=O)[O-])c1 (stereo not drawn)
[1]
  T/C: 109 % of control
[2]
  T/C: 101 % of control

## Cc1c2oc(=O)cc(-c3ccccc3)c2cc2c(=O)ccoc12
[3]
  T/C: 97 % of control
[4]
  T/C: 92 % of control
[5]
  T/C: 97 % of control
dose: 100.0 mg/kg/injection, schedule: Q01DX005 (ip), vehicle: saline with Tween-80
  T/C: 86 % of control
dose: 200.0 mg/kg/injection, schedule: Q01DX005 (ip), vehicle: saline with Tween-80
  T/C: 86 % of control

## CCC1N=C(N)N=C(N)N1c1ccc(Cl)c(Cl)c1 (stereo not drawn)
dose: 3.12 mg/kg/injection, schedule: Q01DX005 (ip), vehicle: Klucel (hydroxypropylcellulose) (HPC)
  T/C: 104 % of control and 96 % of control
dose: 6.25 mg/kg/injection, schedule: Q01DX005 (ip), vehicle: Klucel (hydroxypropylcellulose) (HPC)
  T/C: 102 % of control and 105 % of control and 107 % of control
dose: 12.5 mg/kg/injection, schedule: Q01DX005 (ip), vehicle: Klucel (hydroxypropylcellulose) (HPC)
  T/C: 113 % of control and 114 % of control and 97 % of control
dose: 25.0 mg/kg/injection, schedule: Q01DX005 (ip), vehicle: Klucel (hydroxypropylcellulose) (HPC)
  T/C: 111 % of control and 114 % of control

## N#CC(=NCCO)C1=C(O)c2ccccc2C1=O
dose: 60.0 mg/kg/injection, schedule: Q01DX005 (ip), vehicle: saline with Tween-80
  T/C: 107 % of control
dose: 120.0 mg/kg/injection, schedule: Q01DX005 (ip), vehicle: saline with Tween-80
  T/C: 97 % of control
dose: 240.0 mg/kg/injection, schedule: Q01DX005 (ip), vehicle: saline with Tween-80
  T/C: 95 % of control

## O=C(O)c1c2ccccc2nc2ccccc12
[3]
  T/C: 106 % of control and 93 % of control
[4]
  T/C: 100 % of control and 95 % of control
[5]
  T/C: 104 % of control and 113 % of control and 121 % of control

## O/N=C/C1CCCC[N-]1.O/N=C/C1CCCC[N-]1.O/N=C/C1CCCC[N-]1.[Cu] (stereo not drawn)
dose: 1.56 mg/kg/injection, schedule: Q01DX009 (ip), vehicle: saline
  T/C: 87 % of control
dose: 3.12 mg/kg/injection, schedule: Q01DX009 (ip), vehicle: saline
  T/C: 96 % of control
dose: 6.25 mg/kg/injection, schedule: Q01DX009 (ip), vehicle: saline
  T/C: 87 % of control

## O=c1[nH]c2c(ccc3ccc[n+]([O-])c32)c2c1CCC2
dose: 100.0 mg/kg/injection, schedule: Q04DX002 (ip), vehicle: saline
  T/C: 100 % of control
dose: 200.0 mg/kg/injection, schedule: Q04DX002 (ip), vehicle: saline
  T/C: 90 % of control
dose: 400.0 mg/kg/injection, schedule: Q04DX002 (ip), vehicle: saline
  T/C: 100 % of control

## COc1ccc(C2=C(Cl)C(=O)N(c3ccc(OC)cc3)C(=O)C2(Cl)Cl)cc1
dose: 100.0 mg/kg/injection, schedule: Q04DX002 (ip), vehicle: Klucel (hydroxypropylcellulose) (HPC)
  T/C: 101 % of control
dose: 200.0 mg/kg/injection, schedule: Q04DX002 (ip), vehicle: Klucel (hydroxypropylcellulose) (HPC)
  T/C: 95 % of control
dose: 400.0 mg/kg/injection, schedule: Q04DX002 (ip), vehicle: Klucel (hydroxypropylcellulose) (HPC)
  T/C: 111 % of control

Reference: PubChem BioAssay AID330 (DTP/NCI, 2004)
